We go through four compounds from US20250042872A1, “NOVEL SALT OF 1-SULFONYL PYRROLE DERIVATIVE, METHOD FOR PREPARING SAME, AND PHARMACEUTICAL COMPOSITION INCLUDING SAME” (ILDONG PHARMACEUTICAL CO., LTD., priority 2021, published 2025).

Values after ≈ are worked out from the molar mass of the structure shown. Structures can show the parent of a compound that is named as a salt. Where two headings read alike, the source gives them in different places. Bounds are passed on as bounds.

Format in all cases: physicochemical
The nature of series [1]: Evaluation of solubility in biorelevant media (water, SGF, FaSSIF, FeSSIF), HPLC. To be noted: for Solubility-1 h Concentration / Solubility-24 h Concentration / solubility at 1 h / solubility at 24 h: 37° C.; for solubility at 1 h / solubility at 24 h: 37 °C, thermodynamic from solid; for solubility at 1 h: read-out: Solubility-1 h Concentration; for solubility at 24 h: read-out: Solubility-24 h Concentration. Here is the method: Solubility in biorelevant media, such as SGF, FeSSIF, and FaSSIF was confirmed with respect to the free base and the hydrochloride salt, succinate salt and L-tartrate salt of 1-(5-(2-fluorophenyl)-4-methoxy-1-((6-methoxypyridin-3-yl)sulfonyl)-1H-pyrrole-3-yl)-N-methylmethanamine that was confirmed through the salt screening analysis result.
Buffers for the biorelevant media were prepared as follows.
Water: Laboratory Milli-Q purified water.
SGF (Stimulated Gastric Fluid): 2.0 g of sodium chloride and 7 mL of hydrochloric acid dissolved in 1000 mL of water were used.
FaSSIF (Fasted State Simulated Intestinal Fluid): A commercial product purchased from Bio-Relevant Company and manufactured according to instructions was used.
FeSSIF (Fed State Simulated Intestinal Fluid): A commercial product purchased from Bio-Relevant Company and prepared according to instructions was used.
For the experiment, about 10 mg of a compound was weighed into each glass vial and then added with 1 mL of a medium (final concentration of 10 mg/mL). Then, the sample was continuously stirred in a magnetic stirrer at 37° C. at a speed of 200 rpm. After stirring for 1 hour and 24 hours, 0.5 mL of the sample solution was transferred to a 1.5 mL centrifuge tube and centrifuged at 12,000 rpm for 5 minutes. The supernatant was diluted with suitable methanol and analyzed by HPLC.
The free acid was selected as a standard sample to quantify the solubility, and about 10 mg of the free acid was weighed into a 25 mL flask and dissolved in methanol to the […].

Series [2] can be described thus: Evaluation of drug stability under stress conditions (high temperature open condition 60° C.), XRPD and HPLC. To be noted: 60° C. open; for HPLC peak RT 10.063 min, RRT 1.00 (main peak): in %; for stability under harsh conditions (in words): up to week 2. Here is the method: 10 mg and 40 mg of the free base and the hydrochloride salt of 1-(5-(2-fluorophenyl)-4-methoxy-1-((6-methoxypyridin-3-yl)sulfonyl)-1H-pyrrole-3-yl)-N-methylmethanamine were weighed into each vial and stored under stress conditions to investigate stability.
The stress conditions are as follows:
High temperature open condition: 60° C.;
The bottle neck of the vial was wrapped with aluminum foil with pinholes to avoid contamination, and the samples were analyzed by XRPD and HPLC at the onset (day 0), week 1 and week 2.

The nature of series [3]: Measurement of hygroscopicity by dynamic vapor sorption (DVS). To be noted: FIGS. 22 and 23. As to the method: Using DVS intrinsic manufactured by SMS Co., Ltd, about 20 mg of the sample was tested for water sorption/desorption profiles at 25° C. under a 0%˜95%˜0% relative humidity (RH) cycle using the following parameters. • Temperature: T=25° C. • Equilibrium: dm/dt: 0.01%/min. • Range of RH (%) measurement step: 0%˜95%˜0%; RH(%) measurement step: 5%
Using the dynamic vapor sorption (DVS) test method described above, the hygroscopicity was measured for the hydrochloride salt prepared in Example 1 and the L-tartrate salt prepared in Example 8, and the results thereof were shown in FIGS. 22 and 23.

[4] abbreviates: SGF, simulated gastric fluid, SGF.

In the case of `CNCc1cn(S(=O)(=O)c2ccc(OC)nc2)c(-c2ccccc2F)c1OC` [Free base, 1-(5-(2-fluorophenyl)-4-methoxy-1-((6-methoxypyridin-3-yl)sulfonyl)-1H-pyrrole-3-yl)-N-methylmethanamine], in series [1] (FaSSIF), the “Solubility-1 h Concentration” value was 1440 µg/mL (≈ 3.55 mM) and the “Solubility-24 h Concentration” value is 1440 µg/mL (≈ 3.55 mM). For the same compound, in series [1] (FeSSIF), the “Solubility-1 h Concentration” value was 4570 µg/mL (≈ 11.3 mM) and the “Solubility-24 h Concentration” value was 4770 µg/mL (≈ 11.8 mM). In addition, in series [1] (SGF), the “Solubility-1 h Concentration” value is >10000 µg/mL and the “Solubility-24 h Concentration” value was >10000 µg/mL. For the same compound, in series [1] (water), the “Solubility-1 h Concentration” value stood at 8560 µg/mL (≈ 21.1 mM) and the “Solubility-24 h Concentration” value stood at 8630 µg/mL (≈ 21.3 mM). Besides, in series [2] (onset (day 0)), the Assay % came out at 100.00%; the HPLC peak RRT 1.07 came out at 0.66%; the “HPLC peak RT 10.063 min, RRT 1.00 (main peak)” value is listed as 93.15. Besides, the “stability under harsh conditions (in words)” value in series [2] is listed as “high impurity content”. Also, in series [2] (week 1), the Assay % is 87.44%; the HPLC peak RRT 1.07 amounted to 0.57%; the HPLC peak RT 6.797 min, RRT 0.68 came out at 0.43%; the HPLC peak RT 7.563 min, RRT 0.75 is 1%. Besides, the HPLC peak RT 10.277 min, RRT 1.02 in series [2] (week 1) is 9.95%. In series [2] (week 2), the HPLC peak RRT 0.93 is 0.14% and the “HPLC peak RT 10.063 min, RRT 1.00 (main peak)” value was determined as 65.00.

For `CNCc1cn(S(=O)(=O)c2ccc(OC)nc2)c(-c2ccccc2F)c1OC` [Hydrochloride salt, hydrochloride salt of 1-(5-(2-fluorophenyl)-4-methoxy-1-((6-methoxypyridin-3-yl)sulfonyl)-1H-pyrrole-3-yl)-N-methylmethanamine], the “Solubility-1 h Concentration” value in series [1] (FaSSIF) worked out at 9710 µg/mL. Moreover, the “Solubility-24 h Concentration” value in series [1] (FaSSIF) was found to be 5920 µg/mL. Besides, the solubility at 1 h is 4450 µg/mL in series [1] (FeSSIF, fessif, FeSSIF); > 10000 µg/mL in series [1] (setting [4]); > 10000 µg/mL in series [1] (water, water, water). For the same compound, the solubility at 24 h was 4370 µg/mL in series [1] (FeSSIF, fessif, FeSSIF); > 10000 µg/mL in series [1] (setting [4]); > 10000 µg/mL in series [1] (water, water, water). Also, the “solubility in FaSSIF (in words)” value in series [1] (fasted state simulated intestinal fluid) is given as “very good”. For the same compound, the Assay % is 100.50% in series [2] (onset (day 0)) and 106.14% in series [2] (week 1). The “stability under harsh conditions (in words)” value in series [2] is listed as “excellent stability”. The “hygroscopicity (in words)” value in series [3] is reported as “very low hygroscopicity”.

Take `CNCc1cn(S(=O)(=O)c2ccc(OC)nc2)c(-c2ccccc2F)c1OC.O=C(O)C(O)C(O)C(=O)O` [L-tartrate salt, L-tartrate salt of 1-(5-(2-fluorophenyl)-4-methoxy-1-((6-methoxypyridin-3-yl)sulfonyl)-1H-pyrrole-3-yl)-N-methylmethanamine]: the solubility at 1 h in series [1] (FaSSIF, fassif, FaSSIF) is 8160 µg/mL; in series [1] (FeSSIF, fessif, FeSSIF), 4550 µg/mL; in series [1] (setting [4]), > 10000 µg/mL; in series [1] (water, water, water), > 10000 µg/mL. The solubility at 24 h in series [1] (FaSSIF, fassif, FaSSIF) is > 10000 µg/mL; in series [1] (FeSSIF, fessif, FeSSIF), 4540 µg/mL; in series [1] (setting [4]), > 10000 µg/mL; in series [1] (water, water, water) it was > 10000 µg/mL. Besides, the “hygroscopicity (in words)” value in series [3] is reported as “very low hygroscopicity”.

Regarding `CNCc1cn(S(=O)(=O)c2ccc(OC)nc2)c(-c2ccccc2F)c1OC.O=C(O)CCC(=O)O` [Succinate salt, succinate salt of 1-(5-(2-fluorophenyl)-4-methoxy-1-((6-methoxypyridin-3-yl)sulfonyl)-1H-pyrrole-3-yl)-N-methylmethanamine], the solubility at 1 h in series [1] (FaSSIF, fassif, FaSSIF) is 8100 µg/mL; in series [1] (FeSSIF, fessif, FeSSIF), 4780 µg/mL; in series [1] (setting [4]) it was > 10000 µg/mL; in series [1] (water, water, water), > 10000 µg/mL. Besides, the solubility at 24 h in series [1] (FaSSIF, fassif, FaSSIF) is > 10000 µg/mL; in series [1] (FeSSIF, fessif, FeSSIF), 4720 µg/mL; in series [1] (setting [4]), > 10000 µg/mL; in series [1] (water, water, water), > 10000 µg/mL.
